Results reported in PMC3705412, “PTP1B Inhibitory and Anti-Inflammatory Effects of Secondary Metabolites Isolated from the Marine-Derived Fungus Penicillium sp. JF-55” (Marine Drugs, 2013).

Experiments:
Assay type in all cases: cell-based, murine (C57BL/6 mice)
[1] = tested on: murine peritoneal macrophages; test: Cell viability assay (MTT); set-up: dose or concentration left out as unconfirmed
[2] = tested on: iNOS-derived NO production in murine peritoneal macrophages; test: Nitrite (NO) production in LPS-stimulated macrophages, Griess reaction; settings: Mus musculus, Peritoneal macrophage; pre-treated 12 h, LPS 1 μg/mL 18 h
Procedure: The expression of pro-inflammatory enzymes, including COX-2 and iNOS, plays an important role in immune-activated macrophages via the production of COX-2-derived PGE2 and iNOS-derived NO [20, 21]. To investigate the effects of compounds on iNOS-derived NO and COX-2-derived PGE2 production, and iNOS and COX-2 expression in LPS-stimulated macrophages, murine peritoneal macrophages were stimulated with LPS (1 μg/mL) for 18 h in the presence or absence of non-cytotoxic concentrations of compounds 1–3 (Figure S1). […] The finding that penstyrylpyrone (1) suppressed LPS-induced pro-inflammatory mediators, such as NO, PGE2, iNOS, and COX-2, led further investigation of the effects of penstyrylpyrone (1) on LPS-induced TNF-α and IL-1β production, which are other pro-inflammatory mediators.
(§1) C57BL/6 mice were purchased from Orient Bio Co. (Sungnam, Kyung-Kido, Korea). TG-elicited peritoneal macrophages were harvested four days after intraperitoneal (i.p.) injection of 3 mL of TG [37]. Peritoneal lavage was performed using 8 mL of Hanks’ Balanced Salt Solution containing 10 U/mL heparin. The cells were distributed in Roswell Park Memorial Institute medium (RPMI) supplemented with 10% heat-inactivated FBS, in 6-well tissue culture plates (5 × 10^6 cells/mL).
The production of nitrite, a stable end product of NO oxidation, was used as a measure of iNOS activity. The nitrite present in the conditioned medium was determined using a method based on the Griess reaction.

[3] = tested on: COX-2; test: Western blotting of COX-2 protein expression in LPS-stimulated macrophages; settings: pre-treatment 12 h, LPS 1 μg/mL 18 h
Procedure: Figure 3 The effects of penstyrylpyrone (1) (A), anhydrofulvic acid (2) (B), and citromycetin (3) (C) on the protein expression of iNOS and COX-2 in murine peritoneal macrophages stimulated with LPS. Murine peritoneal macrophages were pre-treated for 12 h at the indicated compound concentrations and stimulated for 18 h with LPS (1 μg/mL). Western blotting analysis was performed, and the representative blots of three independent experiments are shown.
as §1
(§2) Western blotting analysis was performed by lysing the cells in 20 mM Tris-HCl buffer (pH 7.4) containing a protease inhibitor mixture (0.1 mM PMSF, 5 mg/mL aprotinin, 5 mg/mL pepstatin A, and 1 mg/mL chymostatin). The protein concentration was determined using a Lowry protein assay kit (P5626; Sigma Chemical Co., St. Louis, MO, USA). […]

[4] = tested on: anti-oxidant response element (ARE); test: ARE-luciferase activation in macrophages; settings: 1 h, 5% FBS
Procedure: (§3) Figure 7 The effects of penstyrylpyrone (1) on the nuclear translocation of Nrf2 (A) and anti-oxidant response element (ARE) activation (B) in murine peritoneal macrophages. Murine peritoneal macrophages were treated with 40 μM of penstyrylpyrone (1) for 15, 30, 60, 90 and 120 min. The nuclei were fractionated from the cytosol using PER-Mammalian Protein Extraction buffer. Nrf2 protein was detected using Western blotting analysis and representative blots of three independent experiments are shown. Quiescent cells transiently transfected with ARE-luciferase or control vector were incubated for 1 h with indicated concentrations of latifolin in the presence of 5% FBS. Cell lysates were assayed for luciferase activity and depicted by fold induction by normalizing the transfection efficiency and dividing the values of each experiment relative to the control. * p < 0.05 compared to the control group.

[5] = tested on: Nrf2; test: Western blotting of Nrf2 nuclear translocation in macrophages; settings: 40 μM; 15, 30, 60, 90 and 120 min
Procedure: as §3, with “Cell lysates were assayed for luciferase activity and depicted by fold induction by normalizing the transfection efficiency and dividing the values of each experiment relative to the control. * p < 0.05 compared to the control group.” left out
(§4) Murine peritoneal macrophages were homogenized (1:20, w:v) in PER-Mammalian Protein Extraction buffer (Pierce Biotechnology, Rockford, IL, USA) containing freshly added protease inhibitor cocktail I (EMD Biosciences, San Diego, CA, USA) and 1 mM phenylmethylsulfonyl fluoride (PMSF). […] The protein concentration was determined using the bicinchoninic acid (BCA) protein assay kit.
as §2

[6] = tested on: NF-κB; test: DNA-binding activity of NF-κB in nuclear extracts (TransAM kit); settings: pre-treatment 12 h, LPS 1 μg/mL 1 h
Procedure: Figure 5 The effects of penstyrylpyrone (1) on the protein expression level of IκB-α phosphorylation, degradation of IκB-α (A), NF-κB translocation (B), and NF-κB DNA binding activity (C) in murine peritoneal macrophages. Murine peritoneal macrophages were pre-treated for 12 h at the indicated concentrations of penstyrylpyrone (1), and stimulated for 1 h with LPS (1 μg/mL). Western blotting analysis of IκB-α and p-IκB-α in the cytoplasm and NF-κB in the nucleus (A, B) were performed. A commercially available NF-κB ELISA (Active Motif) was used to test the nuclear extracts and to determine the degree of NF-κB binding (C). The data represent the mean values ± SD of three experiments. *p < 0.05 compared with the group treated with LPS.
C57BL/6 mice were purchased from Orient Bio Co. (Sungnam, Kyung-Kido, Korea). […]
as §4
The DNA-binding activity of NF-κB in the nuclear extracts was measured using the TransAM kit (Active Motif, Carlsbad, CA, USA) according to the manufacturer’s instructions.

In the case of `COc1cc(/C=C/c2ccccc2)oc(=O)c1C` [Penstyrylpyrone (1), penstyrylpyrone], the “Cytotoxicity (cell viability)” value [1] is reported as “non-cytotoxic”, the IC50 [2] is reported as 12.3 µM and the COX-2 expression [3] is reported as “decreased”. For the same compound, the “ARE activation (luciferase)” value [4] was “gradually increased in a dose-dependent manner”, the “Nrf2 levels in nuclear fractions” value [5] was “gradual increase in Nrf2 levels” and the “NF-κB DNA-binding activity” value [6] was “impaired this activity in a concentration-dependent manner”.
